Data from US6627603B1, “Method for releasing an active principle contained a multiple emulsion” (Centre National de la Recherche Scientifiquue (C.N.R.S.), priority 1997, dated 2003).

How the values were obtained:
Type in all cases: physicochemical
[1] = Multiple emulsions with Tween 80 in aqueous phase A2: transfer of internal water droplets; settings: Tween 80 as surfactant in aqueous phase A2
Method: Multiple emulsions are prepared according to the procedure described in the preceding examples by using Tween 80 in the aqueous phase A2 as surfactant. Its HLB is 15 and its critical micelle concentration is […]. The same type of result is observed. Transfer of the internal water droplets is also dependent on the concentration Ce of the surfactant in the external phase. In this case, the limit concentration is approximately 200 CMC.
It is observed for this surfactant that the internal water droplets coalesce with one another. This instability appears rapidly and results in a few internal water drops with a greater surface area, still imprisoned in the oily globules.

[2] = Transfer of inverse-emulsion water droplets to an aqueous surfactant phase, detected by AgCl precipitate
Method: In a first step, a monodisperse water-in-dodecane inverse emulsion which is stabilized with Span 80® (sorbitan monooleate from the company Sigma) is prepared. This emulsion is prepared by slowing introducing the disperse aqueous phase (80% by volume) with gentle shearing (of the order of 1000 s^−1) into a continuous phase composed of a dodecane/Span 80 mixture in a 1/1 ratio by weight. Sodium chloride NaCl (0.1M), intended to simulate the presence of the active principle in the aqueous phase A1, is added. Advantageously, it has been shown that the presence of this salt reinforces the stability of the inverse emulsion Ei (Aronson M. P., Petko M. F., J. Colloid Interface Sci., 1993, 159, 134). The initial polydisperse emulsion is converted by a fractional crystallisation technique (Bibette J., J. Colloid Interface Sci., 1991, 147, 474) into a monodisperse emulsion.
Several multiple emulsions were subsequently prepared from this inverse emulsion by mixing it with an aqueous solution comprising sodium dodecyl sulphate (SDS, HLB=40) at various concentrations below or greater than its critical micelle concentration, which is 8×10^−3 mol/l.
The test consists in carefully bringing together (over an area of 1 cm^2) equivalent volumes (1 cm^3) of the inverse emulsion and of water comprising variable amounts of SDS surfactant and a concentration of AgNO3 at a concentration of 10^−3 mol/l. The transfer of the water present in the inverse droplets to the macroscopic aqueous phase is detected by observation of an AgCl precipitate which is formed at the macroscopic interface when the internal contents transfer to the external phase. This is because, when the water droplets move via a coalescence phenomenon from the upper inverse emulsion to the lower aqueous phase, the upper phase gradually becomes transparent whereas the lower phase gradually becomes milky.
Above this limit concentration, the water droplets quickly transfer (in less than 48 hours) within the second phase. […]

[3] = Characteristic release time by phase-contrast optical microscopy; settings: assessed visually using a microscope
Method: Various emulsions are prepared according to the procedure defined in Example No. 1. The concentration of the surface-active agent (SDS) present in the external aqueous phase is varied and the change over time of the double emulsion is observed with a phase-contrast optical microscope (Zeiss Axiovert 100). The curve in FIG. 2 describes the change in the characteristic release time as a function of the concentration of surface-active agent present in the external aqueous phase. The characteristic release time is defined as the time at the end of which virtually all the droplets of phase A1 have been released into the external aqueous phase A2 (by coalescence). As indicated, this time is assessed visually using a microscope. It will be noted that the release time changes from several days, when the concentration is less than 10 CMC, to only a few hours, when the concentration is equal to 40 CMC.

[4] = Stability of the multiple emulsion versus surfactant concentration in the external phase (microscope)
Method: In this test, a multiple emulsion is prepared by dispersing the inverse emulsion in a continuous aqueous phase comprising the SDS surfactant at a concentration equal to one tenth of its critical micelle concentration. The inverse phase is the same as that described above in Example 1: the fraction by volume of water drops is present therein at a concentration of 10% by volume with 0.1 mol/l of NaCl for a concentration of surfactant of 2%. The multiple emulsion is therefore composed of 90% by volume of an external aqueous phase and of 10% of the inverse phase. A high degree of shearing, of the order of 10,000 revolutions per minute, is applied using an Ultra-turrax device for 10 seconds to a total volume of […] of the overall composition, which results in the appearance of double drops in which the water content and the size of the droplets are retained.
Double drops are observed, with each of them comprising small inverse water drops.
This test is repeated, the concentration of the surfactant within the external aqueous phase Ce being varied and the double emulsion being freshly prepared, and the duration of existence of the internal water droplets is recorded. […] This transition takes place for exactly the same concentration as that mentioned in Example 1, that is to say approximately 10 CMC. […] It is thus observed, under a microscope, that only phenomena of coalescence between the tiny inverse water drops and the interface of the direct drops are responsible for the change which is observed.
Only a gradual decrease in the concentration of internal droplets is observed.

[5] = Potentiometric determination of salt (KCl) release from a monodisperse double emulsion
Method: A monodisperse water-in-dodecane inverse emulsion which is stabilized with Span 80 is prepared.
The aqueous phase (80% by volume) is introduced with gentle shearing (of the order of 1000 s^−1) into a continuous phase composed of a dodecane/Span mixture (1:1 by mass). The aqueous phase comprises 1 mol per liter of potassium chloride. This salt acts as active substance which has to be released. The initial polydisperse emulsion is converted by a fractional crystallisation technique, so as to obtain a monodisperse emulsion (Bibette J., J. Colloid Interface Sci., 1991, 147, 474).
The preceding inverse emulsion is emulsified in its turn in an aqueous phase comprising a hydrophilic surface active agent (SDS). A double emulsion is thus obtained composed of oily globules comprising water droplets, which droplets result from the first stage.
The double emulsion is manufactured using a microfluidizer (Jet homogenizer from Labplant). This method consists in bringing the disperse phase and the continuous phase into contact under very high pressure and in then injecting the mixture via a hole with a small diameter (0.1 mm).
The concentration of the KCl initially incorporated in the internal aqueous phase of the double emulsion is measured in the external aqueous phase by potentiometry.
The potentiometric quantitative determination is based on the measurement of a difference in potential between an indicator electrode (Ag/AgCl) and a reference electrode (mercurous sulphate electrode) which are immersed in the colloidal solution comprising the electrolyte to be quantitatively determined (Cl^− ion). The concentration of the Cl^− ion is in this case directly related to the potential ΔE of the Ag/AgCl electrode by a relationship of the type:
ΔE=β+α log Cq (Nernst relationship).
It is then possible, via a calibration line, to know at any moment the concentration of Cl^− ion released into the external aqueous phase.
The results obtained are presented in graphical form in FIG. 1. […]

Row | limit concentration for transfer of the internal water droplets [1] | Structure (SMILES) | time for transfer of the water droplets within the second phase ([2]; above the limit concentration (approximately 10 CMC)) | concentration at which transfer via coalescence takes place ([2]; same test with gentle centrifuging for 15 minutes) [CMC] | limit concentration of surfactant below which the water droplets do not transfer to the second phase ([2]; water-in-dodecane inverse emulsion (Span 80, NaCl 0.1M) on water with AgNO3 10^−3 mol/l, no transfer even for several days below the limit) | characteristic release time ([3]; SDS concentration equal to 40 CMC) | characteristic release time ([3]; SDS concentration less than 10 CMC) | coalescence between the big double globules ([4]; SDS at one tenth of its CMC in external phase, after storage for two months) | period of time for conversion into a direct emulsion ([4]; SDS concentration above the transition (approximately 10 CMC)) | duration for which the double emulsion is retained ([4]; SDS concentration below the transition (approximately 10 CMC)) | concentration at which the double emulsion is converted into a direct emulsion (transition) ([4]; freshly prepared double emulsion, NaCl 0.1 mol/l internal phase, Span 80 2%) | concentration threshold ([5]; KCl double emulsion, globules 4 μm, droplets 0.3 μm) [CMC] | time corresponding to complete release of the salt ([5]; SDS concentration greater or equal to 10 CMC, KCl 1 mol per liter in internal phase, release by coalescence) | release of the salt into the external aqueous phase ([5]; SDS concentration less than 10 CMC, passive diffusion, emulsion retains its double nature)
1 | approximately 200 CMC | CCCCCCCC/C=C\CCCCCCCC(=O)OCCOCC(OCCO)C1OCC(OCCO)C1OCCO (stereo not shown) [Tween 80] |  |  |  |  |  |  |  |  |  |  |  | 
2 |  | CCCCCCCCCCCCOS(=O)(=O)[O-].[Na+] [SDS, sodium dodecyl sulphate] | less than 48 hours | 10 | approximately 10 CMC | a few hours | several days | No phenomenon of coalescence | a few hours | more than one month | approximately 10 CMC | 10 | less than 500 minutes | very slow
